Molecular target: R132H mutant IDH1 enzyme (Homo sapiens (Human), UniProt O75874, R132H)
Test: R132H IDH1 Enzymatic Assay
Format: biochemical
Details: R132H mutant IDH1 enzyme 1.5 nM final; luminescence (Kinase-GLO) readout
Protocol: R132H IDH1 Enzymatic Assay
Luminescence is measured using a PerkinElmer Envision plate reader.

R132H mutant IDH1 enzyme, sequence (O75874 whole entry R132H): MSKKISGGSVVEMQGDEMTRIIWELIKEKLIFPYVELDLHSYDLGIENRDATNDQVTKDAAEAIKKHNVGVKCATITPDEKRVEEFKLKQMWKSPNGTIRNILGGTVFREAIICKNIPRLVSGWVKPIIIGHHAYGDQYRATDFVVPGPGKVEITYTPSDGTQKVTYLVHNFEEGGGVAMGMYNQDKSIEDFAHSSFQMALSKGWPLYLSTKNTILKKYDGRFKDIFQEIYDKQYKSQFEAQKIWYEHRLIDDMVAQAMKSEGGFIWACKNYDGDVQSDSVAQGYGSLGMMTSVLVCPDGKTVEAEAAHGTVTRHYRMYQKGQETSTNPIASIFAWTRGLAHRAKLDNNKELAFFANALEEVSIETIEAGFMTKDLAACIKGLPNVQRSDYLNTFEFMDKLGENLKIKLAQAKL

Row | Structure (SMILES) | IC50 [nM]
1 | COC1CC2CCC(C1)C2C(=O)N1Cc2cccnc2Nc2ccc(N3CCOCC3)cc21 (centres unmarked) [Example 1, 6-{[(3r,8r)-3-Methoxybicyclo[3.2.1]oct-8-yl]carbonyl}-8-morpholin-4-yl-6,11-dihydro-5H-pyrido[2,3-b][1,5]benzodiazepine] | 1050
2 | COC1CC2CCC(C1)C2C(=O)N1Cc2cccnc2Nc2ccc(N3CCOCC3)cc21 (centres unmarked) [Example 2, 6-{[(3s,8s)-3-methoxybicyclo[3.2.1]oct-8-yl]carbonyl}-8-morpholin-4-yl-6,11-dihydro-5H-pyrido[2,3-b][1,5]benzodiazepine] | 226
3 | CC(C)[C@@H]1COC(=O)N1c1ccc2c(c1)N(C(=O)[C@]13C[C@H]4C[C@H](C[C@H](C4)C1)C3)Cc1cccnc1N2 [Example 119, (4R)-4-(1-Methylethyl)-3-{6-[(3S,5S,7S)-tricyclo[3.3.1.1˜3,7˜]dec-1-ylcarbonyl]-6,11-dihydro-5H-pyrido[2,3-b][1,5]benzodiazepin-8-yl}-1,3-oxazolidin-2-one] | 22
4 | O=C(C1C[C@H]2COC[C@@H](C1)N2CC(F)(F)F)N1Cc2cccnc2Nc2ccc(N3C[C@H]4CC[C@@H]3CO4)cc21 (stereo partly drawn) [Example 129, (8-((1R,4R)-2-Oxa-5-azabicyclo[2.2.2]octan-5-yl)-5,11-dihydro-6H-benzo[b]pyrido[2,3-e][1,4]diazepin-6-yl)((1R,5S)-9-(2,2,2-trifluoroethyl)-3-oxa-9-azabicyclo[3.3.1]nonan-7-yl)methanone] | 6
5 | O=C(C1C[C@H]2COC[C@@H](C1)N2CC(F)(F)F)N1Cc2cccnc2Nc2ccc(N3C[C@@H]4CC[C@H]3CO4)cc21 (stereo partly drawn) [Example 130, (8-((1 S,4S)-2-oxa-5-azabicyclo[2.2.2]octan-5-yl)-5,11-dihydro-6H-benzo[b]pyrido[2,3-e][1,4]diazepin-6-yl)((1R,5S)-9-(2,2,2-trifluoroethyl)-3-oxa-9-azabicyclo[3.3.1]nonan-7-yl)methanone] | 5

Reference: US10508108B2, “Tricyclic compounds as inhibitors of mutant IDH enzymes” (Merck Sharp & Dohme Corp., priority 2014, dated 2019)
